According to article PMC3066655 (Journal of medicinal chemistry, 2011):

Experiments:
σ2 receptor = biological target: T1, σ2 receptor (Rattus norvegicus, UniProt Q5U3Y7); assay: σ2 receptor binding assay, [3H]-DTG, liver membrane homogenates; details: for D3/ σ2 ratio: ratio of D3 and σ2 Ki values
T1 sequence (Q5U3Y7 1-176): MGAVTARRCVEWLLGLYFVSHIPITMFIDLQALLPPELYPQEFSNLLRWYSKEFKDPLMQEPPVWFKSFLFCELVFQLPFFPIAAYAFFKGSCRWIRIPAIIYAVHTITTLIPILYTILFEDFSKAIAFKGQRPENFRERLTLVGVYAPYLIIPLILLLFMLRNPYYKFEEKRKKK

σ1 receptor = σ1 receptor (Cavia porcellus, UniProt Q60492); assay: σ1 receptor binding assay; parameters: species or system guinea pig; details: ratio of D3 and σ1 Ki values
σ1 receptor, sequence (Q60492 whole entry): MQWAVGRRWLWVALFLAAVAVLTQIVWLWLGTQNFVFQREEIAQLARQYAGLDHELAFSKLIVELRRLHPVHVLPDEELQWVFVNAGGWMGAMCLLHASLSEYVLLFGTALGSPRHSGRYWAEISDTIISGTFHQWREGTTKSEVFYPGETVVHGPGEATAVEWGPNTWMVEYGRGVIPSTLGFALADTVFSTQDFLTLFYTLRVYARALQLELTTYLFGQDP

| SMILES | Ki (σ2 receptor) | D3/ σ2 ratio (σ2 receptor) | D3/ σ1 Ratio (σ1 receptor) |
| --- | --- | --- | --- |
| COc1ccccc1N1CCN(CCCCNC(=O)c2ccc(N(C)C)cc2)CC1 [Compound 1, 4-(Dimethylamino)-N-[4-(4-(2-methoxyphenyl)piperazin-1-yl)butyl]benzamide, reference compound] | 1570 nM | 1,970 | 1,573 |
| COc1ccccc1N1CCN(CCCCNC(=O)c2ccc(CCF)cc2)CC1 [Compound 2, reference compound] | 2210 nM | – | – |

The next lines start with the values.

| Ki (σ2 receptor) | D3/ σ2 ratio (σ2 receptor) | D3/ σ1 Ratio (σ1 receptor) | SMILES |
| --- | --- | --- | --- |
| 660 ± 36 nM | – | – | COc1ccccc1N1CCN(CCCCNC(=O)c2ccc(OCCF)cc2)CC1 [Compound 18a, 4-(2-Fluoroethoxy)-N-(4-(4-(2-methoxyphenyl)-piperazin-1-yl)-butyl)benzamide] |
| 1120 nM | – | 1,159 | COc1ccccc1N1CCN(CCCCNC(=O)c2ccc(OCCOCCOCCF)cc2)CC1.O=C(O)C(=O)O [Compound 18c, 4-(2-(2-(2-Fluoroethoxy)ethoxy)ethoxy)-N-(4-(4-(2-methoxyphenyl)piperazin-1-l)butyl)benzamide] |
| 2020 nM | 1,839 | 6,541 | O=C(NC/C=C/CN1CCN(c2ccccc2OCCF)CC1)c1ccc(CCF)cc1.O=C(O)C(=O)O [Compound 21b, 4-(2-Fluoroethyl)-N-(4-(4-(2-(2-Fluoroethoxy)phenyl)piperazin-1-yl)-trans-butyl-2-enyl)benzamide] |
| 1320 nM | 1,200 | 7,076 | O=C(NC/C=C/CN1CCN(c2ccccc2OCCF)CC1)c1ccc(-c2ccsc2)cc1.O=C(O)C(=O)O [Compound 21e, 4-(Thiophen-3-yl)-N-(4-(4-(2-(2-fluoroethoxy)phenyl)piperazin-1-yl)-trans-but-2-enyl)benzamide] |
